Reference: patent US7750003B2, “Compounds-943” (AstraZeneca AB, priority 2006, dated 2010)

molecular target: recombinant mTOR (FLAG-tagged, residues 1362-2549) (Homo sapiens, UniProt P42345); assay: In vitro mTOR kinase assay (Test (a), AlphaScreen); format: biochemical; conditions: ATP 20 μM, read-out: Test (a): IC50 versus mTOR kinase
Method: (a) In Vitro mTOR Kinase Assay
Following expression in the mammalian HEK293 cell line, expressed protein was purified using the FLAG epitope tag using standard purification techniques.
Aliquots (2 μl) of each compound dilution were placed into a well of a Greiner 384-well low volume (LV) white polystyrene plate (Greiner Bio-one).
These assay solutions were incubated for 2 hours at room temperature.
The resultant signals arising from laser light excitation at 680 nm were read using a Packard Envision instrument.
The phosphorylated biotinylated peptide that is associated with AlphaScreen Streptavidin donor beads forms a complex with the p70 S6 Kinase (T389) 1A5 Monoclonal Antibody that is associated with Alphascreen Protein A acceptor beads. Upon laser light excitation at 680 nm, the donor bead: acceptor bead complex produces a signal that can be measured. Accordingly, the presence of mTOR kinase activity results in an assay signal. In the presence of an mTOR kinase inhibitor, signal strength is reduced.
mTOR enzyme inhibition for a given test compound was expressed as an IC50 value.

Chain of recombinant mTOR (FLAG-tagged, residues 1362-2549) (P42345 1362-2549): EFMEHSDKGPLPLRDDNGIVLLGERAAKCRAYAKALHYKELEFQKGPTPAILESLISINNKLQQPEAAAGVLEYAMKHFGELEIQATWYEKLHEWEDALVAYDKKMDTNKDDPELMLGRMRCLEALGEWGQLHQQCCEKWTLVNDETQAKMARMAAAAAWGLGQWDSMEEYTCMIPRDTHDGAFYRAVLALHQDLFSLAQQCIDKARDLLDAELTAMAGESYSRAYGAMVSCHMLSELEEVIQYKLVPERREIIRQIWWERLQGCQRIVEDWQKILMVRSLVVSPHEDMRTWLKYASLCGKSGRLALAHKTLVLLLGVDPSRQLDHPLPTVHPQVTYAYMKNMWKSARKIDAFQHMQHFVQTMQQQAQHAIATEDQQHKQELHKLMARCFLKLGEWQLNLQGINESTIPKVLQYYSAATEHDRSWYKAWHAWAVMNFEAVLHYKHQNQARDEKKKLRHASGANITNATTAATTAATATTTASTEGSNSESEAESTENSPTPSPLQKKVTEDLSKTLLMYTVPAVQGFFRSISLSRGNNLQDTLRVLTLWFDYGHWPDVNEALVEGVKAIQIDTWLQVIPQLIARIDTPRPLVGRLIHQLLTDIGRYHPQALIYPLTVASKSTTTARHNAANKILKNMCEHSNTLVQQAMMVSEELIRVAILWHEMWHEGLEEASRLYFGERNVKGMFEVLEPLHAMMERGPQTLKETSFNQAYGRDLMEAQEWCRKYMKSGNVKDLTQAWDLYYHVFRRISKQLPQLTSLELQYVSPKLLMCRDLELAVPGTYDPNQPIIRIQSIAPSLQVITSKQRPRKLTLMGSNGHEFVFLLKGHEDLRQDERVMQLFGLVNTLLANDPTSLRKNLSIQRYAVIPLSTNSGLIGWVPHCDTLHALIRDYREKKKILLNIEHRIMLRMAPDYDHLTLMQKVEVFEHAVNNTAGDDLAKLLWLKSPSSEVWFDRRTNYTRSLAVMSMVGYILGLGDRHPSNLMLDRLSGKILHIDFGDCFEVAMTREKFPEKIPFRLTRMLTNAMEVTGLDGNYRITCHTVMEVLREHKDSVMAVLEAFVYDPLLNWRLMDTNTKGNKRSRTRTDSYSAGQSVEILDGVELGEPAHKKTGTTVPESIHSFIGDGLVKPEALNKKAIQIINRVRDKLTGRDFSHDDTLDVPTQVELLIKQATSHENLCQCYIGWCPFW

| Compound | IC50 [nM] |
| --- | --- |
| CS(=O)(=O)Cc1cc(N2CCOCC2)nc(-c2ccc(NC(=O)NC3CC3)cc2)n1 [Example 8, 3-Cyclopropyl-1-[4-[4-(methylsulfonylmethyl)-6-morpholin-4-yl-pyrimidin-2-yl]phenyl]urea] | 31 |
| CC(C)(C)NC(=O)Nc1ccc(-c2nc(CS(C)(=O)=O)cc(N3CCOCC3)n2)cc1 [Example 8a, 1-[4-[4-(methylsulfonylmethyl)-6-morpholin-4-yl-pyrimidin-2-yl]phenyl]-3-tert-butyl-urea] | 470 |
| CC(=O)NCCNC(=O)Nc1ccc(-c2nc(CS(C)(=O)=O)cc(N3CCOCC3)n2)cc1 [Example 8b, N-[2-[[4-[4-(methylsulfonylmethyl)-6-morpholin-4-yl-pyrimidin-2-yl]phenyl]carbamoylamino]ethyl]acetamide] | 420 |
| CN(C)CCN(C)C(=O)Nc1ccc(-c2nc(CS(C)(=O)=O)cc(N3CCOCC3)n2)cc1 [Example 8c, 1-(2-dimethylaminoethyl)-1-methyl-3-[4-[4-(methylsulfonylmethyl)-6-morpholin-4-yl-pyrimidin-2-yl]phenyl]urea] | 2200 |
| CS(=O)(=O)Cc1cc(N2CCOCC2)nc(-c2ccc(NC(=O)NCc3ncc[nH]3)cc2)n1 [Example 8d, 3-(1H-imidazol-2-ylmethyl)-1-[4-[4-(methylsulfonylmethyl)-6-morpholin-4-yl-pyrimidin-2-yl]phenyl]urea] | 570 |
| CN(C(=O)Nc1ccc(-c2nc(CS(C)(=O)=O)cc(N3CCOCC3)n2)cc1)C1CC1 [Example 8e, 1-cyclopropyl-1-methyl-3-[4-[4-(methylsulfonylmethyl)-6-morpholin-4-yl-pyrimidin-2-yl]phenyl]urea] | 280 |
| CC(C)CNC(=O)Nc1ccc(-c2nc(CS(C)(=O)=O)cc(N3CCOC[C@@H]3C)n2)cc1 [Example 8f, 1-[4-[4-[(3S)-3-Methylmorpholin-4-yl]-6-(methylsulfonylmethyl)pyrimidin-2-yl]phenyl]-3-(2-methylpropyl)urea] | 300 |
| CC(C)NC(=O)Nc1cccc(-c2nc(CS(C)(=O)=O)cc(N3CCOC[C@@H]3C)n2)c1 [Example 8g, 1-[3-[4-[(3S)-3-Methylmorpholin-4-yl]-6-(methylsulfonylmethyl)pyrimidin-2-yl]phenyl]-3-propan-2-yl-urea] | 960 |
| CCNC(=O)Nc1cccc(-c2nc(CS(C)(=O)=O)cc(N3CCOC[C@@H]3C)n2)c1 [Example 8h, 3-Ethyl-1-[3-[4-[(3S)-3-methylmorpholin-4-yl]-6-(methylsulfonylmethyl)pyrimidin-2-yl]phenyl]urea] | 920 |
| CCNC(=O)Nc1ccc(-c2nc(CS(C)(=O)=O)cc(N3CCOC[C@@H]3C)n2)cc1Cl [Example 8i, 1-[2-Chloro-4-[4-[(3S)-3-methylmorpholin-4-yl]-6-(methylsulfonylmethyl)pyrimidin-2-yl]phenyl]-3-ethyl-urea] | 1400 |
| CNC(=O)Nc1ccc(-c2nc(CS(C)(=O)=O)cc(N3CCOC[C@@H]3C)n2)cc1C [Example 8j, 3-Methyl-1-[2-methyl-4-[4-[(3S)-3-methylmorpholin-4-yl]-6-(methylsulfonylmethyl)pyrimidin-2-yl]phenyl]urea] | 160 |
| CC(C)S(=O)(=O)Cc1cc(N2CCOC[C@@H]2C)nc(-c2ccc(NC(=O)Nc3ccccc3)cc2)n1 [Example 9, 1-[4-[4-[(3S)-3-Methylmorpholin-4-yl]-6-(propan-2-ylsulfonylmethyl)pyrimidin-2-yl]phenyl]-3-phenyl-urea] | 590 |
| C[C@H]1COCCN1c1cc(CO)nc(-c2ccc(NC(=O)N(C)C)cc2)n1 [Example 10, 3-[4-[4-(Hydroxymethyl)-6-[(3S)-3-methylmorpholin-4-yl]pyrimidin-2-yl]phenyl]-1,1-dimethyl-urea] | 19000 |
| CC(=O)NCCS(=O)(=O)Cc1cc(N2CCOC[C@@H]2C)nc(-c2ccc(NC(=O)Nc3ccccc3)cc2)n1 [Example 11, N-[2-[[6-[(3S)-3-methylmorpholin-4-yl]-2-[4-(phenylcarbamoylamino)phenyl]pyrimidin-4-yl]methylsulfonyl]ethyl]acetamide] | 140 |
| C[C@H]1COCCN1c1cc(CS(=O)(=O)c2ccccc2)nc(-c2ccc(NC(=O)Nc3ccccc3)cc2)n1 [Example 12, 1-[4-[4-(Benzenesulfonylmethyl)-6-[(3S)-3-methylmorpholin-4-yl]pyrimidin-2-yl]phenyl]-3-phenyl-urea] | 230 |
| C[C@H]1COCCN1c1cc(CS(=O)(=O)CC#N)nc(-c2ccc(NC(=O)N(C)C)cc2)n1 [Example 13, 3-[4-[4-(Cyanomethylsulfonylmethyl)-6-[(3S)-3-methylmorpholin-4-yl]pyrimidin-2-yl]phenyl]-1,1-dimethyl-urea] | 2100 |
| CC(C)S(=O)(=O)Cc1cc(N2CCOC[C@@H]2C)nc(-c2ccc(NC(=O)N(C)C)cc2)n1 [Example 14, 1,1-Dimethyl-3-[4-[4-[(3S)-3-methylmorpholin-4-yl]-6-(propan-2-ylsulfonylmethyl)pyrimidin-2-yl]phenyl]urea] | 420 |
| C[C@H]1COCCN1c1cc(CS(=O)(=O)c2ccccc2)nc(-c2ccc(NC(=O)N(C)C)cc2)n1 [Example 15, 3-[4-[4-(Benzenesulfonylmethyl)-6-[(3S)-3-methylmorpholin-4-yl]pyrimidin-2-yl]phenyl]-1,1-dimethyl-urea] | 1000 |
| CC(=O)NCCS(=O)(=O)Cc1cc(N2CCOC[C@@H]2C)nc(-c2ccc(NC(=O)N(C)C)cc2)n1 [Example 16, N-[2-[[2-[4-(Dimethylcarbamoylamino)phenyl]-6-[(3S)-3-methylmorpholin-4-yl]pyrimidin-4-yl]methylsulfonyl]ethyl]acetamide] | 4000 |
| C[C@H]1COCCN1c1cc(CS(=O)(=O)CC(N)=O)nc(-c2ccc(NC(=O)N(C)C)cc2)n1 [Example 17, 2-[[2-[4-(Dimethylcarbamoylamino)phenyl]-6-[(3S)-3-methylmorpholin-4-yl]pyrimidin-4-yl]methylsulfonyl]acetamide] | 1100 |
| CNC(=O)Nc1ccc(-c2nc(CO)cc(N3CCOC[C@@H]3C)n2)cc1 [Example 18, 1-[4-[4-(Hydroxymethyl)-6-[(3S)-3-methylmorpholin-4-yl]pyrimidin-2-yl]phenyl]-3-methyl-urea] | 120 |
| CNC(=O)Nc1ccc(-c2nc(CS(=O)(=O)C3CCCCC3)cc(N3CCOC[C@@H]3C)n2)cc1 [Example 19, 1-[4-[4-(Cyclohexylsulfonylmethyl)-6-[(3S)-3-methylmorpholin-4-yl]pyrimidin-2-yl]phenyl]-3-methyl-urea] | 250 |
| CNC(=O)Nc1ccc(-c2nc(CS(=O)(=O)c3ccccc3)cc(N3CCOC[C@@H]3C)n2)cc1 [Example 19a, 1-[4-[4-(benzenesulfonylmethyl)-6-[(3S)-3-methylmorpholin-4-yl]pyrimidin-2-yl]phenyl]-3-methyl-urea] | 4.7 |
| CNC(=O)Nc1ccc(-c2nc(CS(=O)(=O)c3ccc(F)cc3)cc(N3CCOC[C@@H]3C)n2)cc1 [Example 19b, 1-[4-[4-[(4-fluorophenyl)sulfonylmethyl]-6-[(3S)-3-methylmorpholin-4-yl]pyrimidin-2-yl]phenyl]-3-methyl urea] | 33 |
| CNC(=O)Nc1ccc(-c2nc(CS(=O)(=O)c3ccc(NC(C)=O)cc3)cc(N3CCOC[C@@H]3C)n2)cc1 [Example 19c, N-[4-[[2-[4-(methylcarbamoylamino)phenyl]-6-[(3S)-3-methylmorpholin-4-yl]pyrimidin-4-yl]methylsulfonyl]phenyl]acetamide] | 22 |
